Results taken from patent US5733913A, “6-Aryl pyrido[2,3-d] pyrimidines and naphthyridines for inhibiting protein tyrosine kinase mediated cellular proliferation” (priority 1995, dated 1998).

Legend:
[1] = target: T1, human FGF-1 (flg) receptor tyrosine kinase (Homo sapiens, UniProt P11362); assay: FGF receptor tyrosine kinase assay; format: biochemical; conditions: for IC50: read-out: Inhibition of Protein Tyrosine Kinases, FGF, IC50; for inhibition at 50 µM: read-out: Inhibition of Protein Tyrosine Kinases, FGF, % Inhibition
T1 construct: a fragment of DNA that codes for the intracellular tyrosine kinase domain; made in house; host or cells: Sf9 insect cells (baculovirus), cell lysate
Text: (§1) PDGF and FGF Receptor Tyrosine Kinase Assays
(§2) Full length cDNAs for the mouse PDGF-β and human FGF-1 (flg) receptor tyrosine kinases were obtained from J. Escobedo and prepared as described in J. Biol. Chem., 262:1482-1487 (1991), and PCR primers were designed to amplify a fragment of DNA that codes for the intracellular tyrosine kinase domain. The fragment was melded into a baculovirus vector, cotransfected with AcMNPV DNA, and the recombinant virus isolated. SF9 insect cells were infected with the virus to overexpress the protein, and the cell lysate was used for the assay. […] Briefly, to each well was added 82.5 μL of incubation buffer containing 25 mM Hepes (pH 7.0), 150 mM NaCl, 0.1% Triton X-100, 0.2 mM PMSF, 0.2 mM Na3 VO4, 10 mM MnCl2, and 750 μg/mL of Poly (4:1) glutamate-tyrosine followed by 2.5 μL of inhibitor and 5 μL of enzyme lysate (7.5 μg/μL FGF-TK or 6.0 μg/μL PDGF-TK) to initiate the reaction. Following a 10 minute incubation at 25° C., 10 μL of γ^32 P-ATP (0.4 μCi plus 50 μM ATP) was added to each well and samples were incubated for an additional 10 minutes at 25° C. The reaction was terminated by the addition of 100 μL of 30% trichloroacetic acid (TCA) containing 20 mM sodium pyrophosphate and precipitation of material onto glass fiber filter mats (Wallac). […] Nonspecific activity was defined as radioactivity retained on the filters following incubation of samples with buffer alone (no enzyme). Specific enzymatic activity was defined as total activity (enzyme plus buffer) minus nonspecific activity.

V-src kinase = V-src kinase assay; format: biochemical; conditions: at 50 μM
Experimental: (§3) V-src and C-src Kinase Assays
(§4) V-src or C-src kinase is purified from baculovirus infected insect cell lysates using an antipeptide monoclonal antibody directed against the N-terminal 2-17 amino acids. The antibody, covalently linked to 0.65-μm latex beads, is added to a suspension of insect cell lysis buffer comprised of 150 mM NaCl, 50 mM Tris pH 7.5, 1 mM DTT, 1% NP-40, 2 mM EGTA, 1 mM sodium vanadate, 1 mM PMSF, 1 μg/mL each of leupeptin, pepstatin, and aprotinin. Insect cell lysate containing either the c-src or v-src protein is incubated with these beads for 3-4 hours at 4° C. with rotation. At the end of the lysate incubation, the beads are rinsed 3 times in lysis buffer, resuspended in lysis buffer containing 10% glycerol, and frozen. These latex beads are thawed, rinsed three times in assay buffer which is comprised of 40 mM tris pH 7.5, 5 mM MgCl2, and suspended in the same buffer. In a Millipore 96-well plate with a 0.65 μm polyvinylidine membrane bottom are added the reaction components: 10-μL v-src or c-src beads, 10 μL of 2.5 mg/mL poly GluTyr substrate, 5 μM ATP containing 0.2 μCi labeled ^32 P-ATP, 5μL DMSO containing inhibitors or as a solvent control, and buffer to make the final volume 125 μL. The reaction is started at room temperature by addition of the ATP and quenched 10 minutes later by the addition of 125 μL of 30% TCA, 0.1M sodium pyrophosphate for 5 minutes on ice. The plate is then filtered and the wells washed with two 250-μL aliquots of 15% TCA, 0.1M pyrophosphate. The filters are punched, counted in a liquid scintillation counter, and the data examined for inhibitory activity in comparison to a known inhibitor such as erbstatin. The method is described more fully in J. Med. Chem., 37:598-609 (1994).

[2] = target: T2, mouse PDGF-β receptor tyrosine kinase (Mus musculus, UniProt P05622); assay: PDGF receptor tyrosine kinase assay; format: biochemical; conditions: for inhibition at 50 µM: read-out: Inhibition of Protein Tyrosine Kinases, PDGF, % Inhibition; for IC50: read-out: Inhibition of Protein Tyrosine Kinases, PDGF, IC50
T2 construct: a fragment of DNA that codes for the intracellular tyrosine kinase domain; made in house; host or cells: Sf9 insect cells (baculovirus), cell lysate
Text: as §1, §2

C-src kinase = target: T3, C-src kinase (Homo sapiens, UniProt P12931); assay: C-src kinase assay; format: biochemical; conditions: for inhibition at 50 µM: read-out: Inhibition of Protein Tyrosine Kinases, C-src, % Inhibition; for IC50: read-out: Inhibition of Protein Tyrosine Kinases, C-src, IC50
T3 construct: made in house; host or cells: baculovirus-infected insect cells
Experimental: as §3
as §4, with “Insect cell lysate containing either the c-src or v-src protein is incubated with these beads for 3-4 hours at 4° C. with rotation.” left out

PDGF receptor = PDGF receptor autophosphorylation in RASMC; format: cell-based, rat; conditions: PDGF-BB 30 ng/mL, read-out: Inhibition of PDGF Stimulated Receptor Auto Phosphorylation (IC50)
Experimental: Rat aorta smooth muscle cells (RASMC) were isolated from the thoracic aorta of rats and explanted according to the method of Ross, J. Cell. […] Cells were grown in Dulbecco's modified Eagle's medium (DMEM, Gibco) containing 10% fetal calf serum (FBS, Hyclone, Logan, Utah), 1% glutamine (Gibco) and 1% penicillin/streptomycin (Gibco). Cells were identified as smooth muscle cells by their "hill and valley" growth pattern and by fluorescent staining with a monoclonal antibody specific for SMC μ-actin (Sigma). RASMC were used between passages 5 and 20 for all experiments. Test compounds were prepared in dimethylsulfoxide (DMSO) in order to achieve consistency in the vehicle and to ensure compound solubility. Appropriate DMSO controls were simultaneously evaluated with the test compounds.
PDGF Receptor Autophosphorylation
RASMC were grown to confluency in 100 mm dishes. Growth medium was removed and replaced with serum-free medium and cells were incubated at 37° C. for an additional 24 hours. Test compounds were then added directly to the medium and cells incubated for an additional 2 hours. After 2 hours, PDGF-BB was added at a final concentration of 30 ng/mL for 5 minutes at 37° C. to stimulated autophosphorylation of the PDGF receptor. Following growth factor treatment, the medium was removed, and cells were washed with cold phosphate-buffered saline and immediately lysed with 1 mL of lysis buffer (50 mM HEPES[pH 7.5], 150 mM NaCl, 10% glycerol, 1% Triton X-100, 1 mM EDTA, 1 mMEGTA, 50 mM NaF, 1 mM sodium orthovanadate, 30 mM p-nitrophenyl phosphate, 10 mM sodium pyrophosphate, 1 mM phenylmethyl sulfonyl fluoride, 10 μg/mL aprotinin, and 10 μg/mL leupeptin). Lysates were centrifuged at 10,000×g for 10 minutes. […] Following the incubation, protein-A-sepharose beads were added for 2 hours with continuous mixing, and immune complexes bound to the beads washed 4 times with 1 mL lysis wash buffer. Immune complexes were solubilized in 30 μL of Laemmli sample buffer and electrophoresed in 4-20% SDS polyacrylamide gels. Following electrophoresis, separated proteins were transferred to nitrocellulose and immunoblotted with anti-phosphotyrosine antiserum. […] IC50 values were generated from the densitometric data.

T1 sequence (P11362 478-767 limits assumed): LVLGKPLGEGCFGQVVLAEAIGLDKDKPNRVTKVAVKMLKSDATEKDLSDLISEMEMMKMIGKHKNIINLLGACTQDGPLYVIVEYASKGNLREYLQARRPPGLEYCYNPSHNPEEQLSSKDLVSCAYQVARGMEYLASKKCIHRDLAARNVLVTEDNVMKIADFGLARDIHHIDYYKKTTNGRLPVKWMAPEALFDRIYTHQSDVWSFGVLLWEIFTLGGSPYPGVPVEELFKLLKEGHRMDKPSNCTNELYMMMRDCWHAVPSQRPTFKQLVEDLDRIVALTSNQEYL
T3 sequence (P12931 whole entry): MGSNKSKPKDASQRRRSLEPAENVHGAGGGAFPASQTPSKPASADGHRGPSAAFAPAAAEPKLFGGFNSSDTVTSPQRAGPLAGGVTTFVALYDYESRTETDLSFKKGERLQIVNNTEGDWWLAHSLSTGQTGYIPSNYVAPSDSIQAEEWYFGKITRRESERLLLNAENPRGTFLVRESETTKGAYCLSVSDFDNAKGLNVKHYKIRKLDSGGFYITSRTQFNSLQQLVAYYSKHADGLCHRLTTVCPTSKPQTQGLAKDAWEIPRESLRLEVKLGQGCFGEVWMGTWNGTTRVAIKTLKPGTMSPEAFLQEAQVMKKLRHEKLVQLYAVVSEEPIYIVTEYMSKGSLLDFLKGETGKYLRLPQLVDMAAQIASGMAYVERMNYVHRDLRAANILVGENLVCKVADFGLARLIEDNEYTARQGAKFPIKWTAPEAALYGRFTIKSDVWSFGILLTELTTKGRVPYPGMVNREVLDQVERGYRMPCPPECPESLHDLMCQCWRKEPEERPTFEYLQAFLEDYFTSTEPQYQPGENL
T2 sequence (P05622 599-961 limits assumed): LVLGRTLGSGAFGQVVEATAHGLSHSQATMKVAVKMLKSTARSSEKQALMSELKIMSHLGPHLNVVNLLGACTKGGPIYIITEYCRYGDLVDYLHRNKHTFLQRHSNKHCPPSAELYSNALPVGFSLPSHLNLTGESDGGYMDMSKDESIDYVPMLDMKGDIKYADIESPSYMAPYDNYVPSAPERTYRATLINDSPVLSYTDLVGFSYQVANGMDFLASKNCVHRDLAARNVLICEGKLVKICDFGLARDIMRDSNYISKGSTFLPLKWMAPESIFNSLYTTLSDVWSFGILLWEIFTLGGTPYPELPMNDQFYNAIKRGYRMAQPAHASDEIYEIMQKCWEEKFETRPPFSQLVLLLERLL

| IC50 [1] [µM] | IC50 [2] [µM] | IC50 (C-src kinase) [µM] | IC50 (PDGF receptor) [µM] | SMILES | Inhibition of Protein Tyrosine Kinases, V-src, % Inhibition (V-src kinase) [%] | inhibition at 50 µM [2] [%] | inhibition at 50 µM (C-src kinase) [%] | inhibition at 50 µM [1] [%] |
| --- | --- | --- | --- | --- | --- | --- | --- | --- |
| 1.39 |  | 1.56 | 9.42 | CCNC(=O)Nc1nc2nc(NCCN(CC)CC)ncc2cc1-c1c(Cl)cccc1Cl [Example 67, 1-[6-(2,6-Dichlorophenyl)-2-(2-diethylamino-ethyl-amino)-pyrido[2,3-d]pyrimidin-7-yl]-3-ethyl-urea] |  |  |  |  |
|  |  |  |  | Nc1ncc2cc(-c3ccccc3)c(N)nc2n1 [Example 81, 6-Phenyl-pyrido[2,3-d]pyrimidine-2,7-diamine] | -20.3 |  | 67.5 |  |
|  |  |  |  | COc1ccccc1-c1cc2cnc(N)nc2nc1N [Example 100, 6-(2-Methoxy-phenyl)-pyrido[2,3-d]pyrimidine-2,7-diamine] | 6.0 | 22.3 | 46.6 | 27.1 |
| 11.2 | 4.48 | 19.3 |  | COc1ccccc1-c1cc2cnc(N)nc2nc1NC(=O)NC(C)(C)C [Example 101, 1-[2-Amino-6-(2-methoxy-phenyl)-pyrido[2,3-d]pyrimidin-7-yl]-3-tert-butyl-urea] |  |  |  |  |
| 0.3 | 19.6 | 36.4 |  | COc1cccc(-c2cc3cnc(N)nc3nc2NC(=O)NC(C)(C)C)c1 [Example 103, 1-[2-Amino-6-(3-methoxy-phenyl)-pyrido[2,3-d]pyrimidin-7-yl]-3-tert-butyl-urea] |  |  |  |  |
| 0.181 | 0.618 | 0.214 |  | CC(C)(C)NC(=O)Nc1nc2nc(N)ncc2cc1-c1c(Cl)cccc1Br [Example 105, 1-[2-Amino-6-(2-bromo-6-chloro-phenyl)-pyrido[2,3-d]pyrimidin-7-yl]-3-tert-butyl-urea] |  |  |  |  |
| 0.361 | 4.8 | 0.236 |  | CCCS(=O)(=O)Nc1nc2nc(N)ncc2cc1-c1c(Cl)cccc1Cl [Example 106, Propane-1-sulfonic acid [2-amino-6-(2,6-dichlorophenyl)-pyrido[2,3-d]pyrimidin-7-yl]-amide] |  |  |  |  |
|  |  |  |  | Nc1ncc2cc(-c3cccnc3)c(N)nc2n1 [Example 107, 6-Pyridin-3-yl-pyrido[2,3-d]pyrimidine-2,7-diamine] | 1.4 | 20.5 | 37 | 37.2 |
| 4.48 | 13.7 | 5.66 |  | CC(C)(C)NC(=O)Nc1nc2nc(N)ncc2cc1-c1cccnc1 [Example 108, 1-(2-Amino-6-pyridin-3-yl-pyrido[2,3-d]pyrimidin-7-yl)-3-tert-butyl-urea] |  |  |  |  |
| 12.8 | 11.5 |  |  | CC(C)(C)NC(=O)Nc1nc2nc(N)ncc2cc1-c1ccncc1 [Example 110, 1-(2-Amino-6-pyridin-4-yl-pyrido[2,3-d]pyrimidin-7-yl)-3-tert-butyl-urea] |  |  | 27.5 |  |
| 19.2 | 23.9 |  | 15.9 | CCN(CC)CCCNc1ncc2cc(-c3c(C)cccc3C)c(N)nc2n1 [Example 114, N^2-(3-Diethylamino-propyl)-6-(2,6-dimethyl-phenyl)-pyrido[2,3-d]pyrimidine-2,7-diamine] |  |  |  |  |
| 0.135 | 2.79 |  |  | CN1CCN(CCCNc2ncc3cc(-c4c(Cl)cccc4Cl)c(NC(=O)NC45CC6CC(CC(C6)C4)C5)nc3n2)CC1 [Example 117, 1-Adamantan-1-yl-3-{6-(2,6-dichlorophenyl)-2-[3-(4-methyl-piperazin-1-yl)-propylamino]-pyrido[2,3-d]pyrimidin-7-yl}-urea] |  |  | 100 |  |
| 3.27 | 3.84 | 42.7 |  | Cc1cc(C)c(C)c(-c2cc3cnc(NCCCN4CCN(C)CC4)nc3nc2N)c1C [Example 120, N^2-[3-(4-Methyl-piperazin-1-yl)-propyl]-6-(2,3,5,6-tetramethyl-phenyl)-pyrido[2,3-d]pyrimidine-2,7-diamine] |  |  |  |  |

| SMILES | IC50 [1] [µM] | IC50 [2] [µM] | IC50 (C-src kinase) [µM] | IC50 (PDGF receptor) [µM] | Inhibition of Protein Tyrosine Kinases, V-src, % Inhibition (V-src kinase) [%] | inhibition at 50 µM [2] [%] | inhibition at 50 µM (C-src kinase) [%] | inhibition at 50 µM [1] [%] |
| --- | --- | --- | --- | --- | --- | --- | --- | --- |
| Nc1ncc2cc(-c3c(Cl)cccc3Cl)c(N)nc2n1 [Example 1, 2,7-Diamino-6-(2,6-dichlorophenyl)-pyrido[2,3-d]pyrimidine] | 2.99 |  |  |  | -2.4 |  |  |  |
| CNc1nc2nc(N)ncc2cc1-c1ccc(OC)cc1 [Example 13, 6-(4-Methoxyphenyl)-N^7-methyl-pyrido[2,3-d]pyrimidine-2,7-diamine] | 30.3 |  |  |  | 21.2 | 18.2 | 15.9 |  |
| CCN(CC)CCCNc1ncc2cc(-c3c(Cl)cccc3Cl)c(N)nc2n1 [Example 20, 7-Amino-6-(2,6-dichlorophenyl)-2-(3-diethylamino-propylamino)-pyrido[2,3-d]pyrimidine] | 2.38 | 46.1 | 0.748 |  | 51.7 |  |  |  |
| Nc1ncc2cc(-c3cccc(Cl)c3Cl)c(N)nc2n1 [Example 83, 6-(2,3-Dichlorophenyl)-pyrido[2,3-d]pyrimidine-2,7-diamine] | 1.98 | 42.5 |  |  | -9.8 |  | 53.6 |  |
| Cc1cccc(-c2cc3cnc(N)nc3nc2N)c1C [Example 92, 6-(2,3-Dimethyl-phenyl)-pyrido[2,3-d]pyrimidine-2,7-diamine] | 2.01 |  |  |  | -10.1 | 33.1 | 44.5 |  |
| COc1cccc(-c2cc3cnc(N)nc3nc2N)c1 [Example 102, 6-(3-Methoxy-phenyl)-pyrido[2,3-d]pyrimidine-2,7-diamine] | 3.11 |  |  |  | -8.2 | 44.4 | 0.8 |  |
| Nc1ncc2cc(-c3ccccn3)c(N)nc2n1 [Example 111, 6-Pyridin-2-yl-pyrido[2,3-d]pyrimidine-2,7-diamine] |  | 23.3 |  |  | -26.4 |  | 15.7 | 47.7 |
